Measurements published in patent publication US9453051B2, “Cyclosporin derivatives” (priority 2011, dated 2016).
Where two headings read alike, the source gives them in different places.

Columns and labels:
NFAT = experiment: Cellular NFAT-reporter-gene assay (GloResponse NFAT-RE-luc2P HEK293); type: cell-based; settings: Homo sapiens, read-out: NFAT-reporter-gene assay IC50
Description: An antigen specific stimulation of the T-cell receptor causes the activation of transcription factors such as e.g. NFAT (nuclear factor of activated T cells). NFAT-activation is essential for the expression of interleukine-2 and therefore, for the proliferation of T-cells as part of the immune response. A stable NFAT-reporter-gene cell line enables the analysis of modulators of the NFAT-pathways and thus, the evaluation of the immunosuppressive effects of compounds.
The stably transfected reporter-gene cell line GloResponse NFAT-RE-luc2P HEK293 (promega Corp. USA) was cultivated in DMEM (10% FCS; 2 mM Glutamin; 200 μg/ml Hygromycin) and seeded on 96-well plates (200.000 cells/well). The compounds to be tested were either added to the cells in a 2-point-determination (5 μM and 10 μM) or an ICH-determination (concentration series 4.1 nM-1 μM). […] Immediately thereafter the cells were stimulated with 5 nM PMA and 2 μM ionomycin and incubated over 16 h (37° C.; cell incubator). This double stimulation simulates a T-cell receptor stimulation and causes a NFAT activation with subsequently expression of the luciferase-reporter-gene. The amount of luciferase was quantitatively determined after 16 h by measurement of the bioluminescence by Bright-Glo Luciferase-Assay-System (Promega Corp., USA). The averaged luciferase values of the vehicle treated (1% DMSO) and with PMA/ionomycin stimulated cells were used as positive control and reference value.

[1] = target: recombinant human wild type Cyp18 (Cyp18 wt) (Homo sapiens, UniProt P62937); experiment: biochemical
Chain of recombinant human wild type Cyp18 (Cyp18 wt) (P62937 whole entry): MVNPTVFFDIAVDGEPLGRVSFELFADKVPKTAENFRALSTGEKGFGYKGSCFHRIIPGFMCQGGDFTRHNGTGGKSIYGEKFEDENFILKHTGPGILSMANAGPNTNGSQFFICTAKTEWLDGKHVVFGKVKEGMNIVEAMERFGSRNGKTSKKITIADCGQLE
Description: The determination was performed on a UV/Vis spectrometer at 10° C. cuvette temperature, whereby the device is operated at 390 nm in kinetic-mode (measurement buffer: 35 mM HEPES/NaOH pH 7.8 (AppliChem A1069)). 0.58 nM recombinant human wild type Cyp18 (Cyp18 wt), 2.33 nM bovine serum albumin (BSA) and 1 mg/ml chymotrypsin (Merck) solved in 35 mM HEPES/NaOH pH 7.8 as well as different concentration of each test substance, where appropriate, were in the cuvette. The reaction was started with a stock solution of Suc-Ala-Ala-Pro-Phe-4-nitroanilide (Bachem, 10 mg/ml DMSO) as substrate so that a final substrate concentration of 32 μM resulted. The extinction-time-curves were evaluated after expiry of the fast phase of the reaction i.e. after approximately 60 seconds according to a rate equation of a first-order reaction.

calcineurin = calcineurin (Homo sapiens, UniProt P62937+P63098+Q08209); experiment: Inhibition of the phosphatase activity of calcineurin (scintillation-proximity-assay, in presence of Cyp18);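 note: calcineurin dephosphorylation of a ³³P-labelled RII phosphopeptide, captured on streptavidin-coated wells and read by scintillation counting, with uninhibited enzyme activity taken as 100%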
Description: The measurement was carried out by incubation of 10 μMol of the biotinylated phosphopeptide [sequence]pSer-Val-Ala-Ala-Glu (MW=2192.0) (RH-peptide) marked with ^33P in a sample buffer (40 mM Tris-HCl, pH 7.5, 100 mM NaCl, 6 mM MgCl2, 0.5 mM dithiothreitol, 1 mM. CaCl2, 0.1 mg/ml bovine serum albumin) in presence of 50 nM calmodulin and 1.32 nM calcineurin at 30° C. for 20 min in a 96 well micro titer plate (Costar, Bodenheim, Germany). The total volume of the assay/well was 100 μl. After this reaction time a 90 μl aliquot of the reaction mixture was transferred into a scintillation cavity coated with streptavidin and incubated for 20 min at 22° C. After a washing step the RII phosphopeptide-associated ^33P radioactivity was measured in a MicroBeta Top Counter (Wallac) and the enzyme activity was indicated as average value of three measurements±S.D. The uninhibited dephosphorylation activity has been set on 100%.

SMILES | IC50 (NFAT; HEK293, 16 h) | IC50 [1] | IC50 (calcineurin) | IC50 (NFAT; HEK293 reporter cells stimulated with 5 nM PMA and 2 μM ionomycin, 16 h)
CCOC(=O)c1ccc2[nH]c(C[C@@H](C)[C@@H](O)[C@H]3C(=O)N[C@@H](CC)C(=O)N(C)CC(=O)N(C)[C@@H](CC(C)C)C(=O)N[C@@H](C(C)C)C(=O)N(C)[C@@H](CC(C)C)C(=O)N[C@@H](C)C(=O)N[C@H](C)C(=O)N(C)[C@@H](CC(C)C)C(=O)N(C)[C@@H](CC(C)C)C(=O)N(C)[C@@H](C(C)C)C(=O)N3C)nc2c1 [Compound 9] | > 10 µM | 0.0139 µM | 7 µM | 
CCC(CC)COC(=O)c1ccc2[nH]c(C[C@@H](C)[C@@H](O)[C@H]3C(=O)N[C@@H](CC)C(=O)N(C)CC(=O)N(C)[C@@H](CC(C)C)C(=O)N[C@@H](C(C)C)C(=O)N(C)[C@@H](CC(C)C)C(=O)N[C@@H](C)C(=O)N[C@H](C)C(=O)N(C)[C@@H](CC(C)C)C(=O)N(C)[C@@H](CC(C)C)C(=O)N(C)[C@@H](C(C)C)C(=O)N3C)nc2c1 [Compound 10] | > 10 µM | 0.0115 µM | 6.9 µM | 
CCCCOC(=O)c1ccc2[nH]c(C[C@@H](C)[C@@H](O)[C@H]3C(=O)N[C@@H](CC)C(=O)N(C)CC(=O)N(C)[C@@H](CC(C)C)C(=O)N[C@@H](C(C)C)C(=O)N(C)[C@@H](CC(C)C)C(=O)N[C@@H](C)C(=O)N[C@H](C)C(=O)N(C)[C@@H](CC(C)C)C(=O)N(C)[C@@H](CC(C)C)C(=O)N(C)[C@@H](C(C)C)C(=O)N3C)nc2c1 [Compound 11] | 10 µM |  |  | 
CC[C@@H]1NC(=O)[C@H]([C@H](O)[C@H](C)Cc2nc3cc(C(=O)NC(CCC(=O)O)C(=O)NC(CCC(=O)O)C(=O)O)ccc3[nH]2)N(C)C(=O)[C@H](C(C)C)N(C)C(=O)[C@H](CC(C)C)N(C)C(=O)[C@H](CC(C)C)N(C)C(=O)[C@@H](C)NC(=O)[C@H](C)NC(=O)[C@H](CC(C)C)N(C)C(=O)[C@H](C(C)C)NC(=O)[C@H](CC(C)C)N(C)C(=O)CN(C)C1=O (stereo partly shown) [Compound 13] | > 10 µM | 0.0111 µM | > 10 µM | 
CC[C@@H]1NC(=O)[C@H]([C@H](O)[C@H](C)Cc2nc3cc(/C=C/C(=O)O)ccc3[nH]2)N(C)C(=O)[C@H](C(C)C)N(C)C(=O)[C@H](CC(C)C)N(C)C(=O)[C@H](CC(C)C)N(C)C(=O)[C@@H](C)NC(=O)[C@H](C)NC(=O)[C@H](CC(C)C)N(C)C(=O)[C@H](C(C)C)NC(=O)[C@H](CC(C)C)N(C)C(=O)CN(C)C1=O [Compound 15] | > 10 µM | 0.0048 µM | > 10 µM | 
CC[C@@H]1NC(=O)[C@H]([C@H](O)[C@H](C)Cc2nc3ncnc(O)c3[nH]2)N(C)C(=O)[C@H](C(C)C)N(C)C(=O)[C@H](CC(C)C)N(C)C(=O)[C@H](CC(C)C)N(C)C(=O)[C@@H](C)NC(=O)[C@H](C)NC(=O)[C@H](CC(C)C)N(C)C(=O)[C@H](C(C)C)NC(=O)[C@H](CC(C)C)N(C)C(=O)CN(C)C1=O [Compound 18] | > 10 µM | 0.0014 µM |  | 
CC[C@@H]1NC(=O)[C@H]([C@H](O)[C@H](C)Cc2nc3cc(C(=O)NN)ccc3[nH]2)N(C)C(=O)[C@H](C(C)C)N(C)C(=O)[C@H](CC(C)C)N(C)C(=O)[C@H](CC(C)C)N(C)C(=O)[C@@H](C)NC(=O)[C@H](C)NC(=O)[C@H](CC(C)C)N(C)C(=O)[C@H](C(C)C)NC(=O)[C@H](CC(C)C)N(C)C(=O)CN(C)C1=O [Compound 19] | > 10 µM | 0.0054 µM | 7 µM | 
CC[C@@H]1NC(=O)[C@H]([C@H](O)[C@H](C)Cc2nc3c(F)c(F)cc(S(=O)(=O)O)c3[nH]2)N(C)C(=O)[C@H](C(C)C)N(C)C(=O)[C@H](CC(C)C)N(C)C(=O)[C@H](CC(C)C)N(C)C(=O)[C@@H](C)NC(=O)[C@H](C)NC(=O)[C@H](CC(C)C)N(C)C(=O)[C@H](C(C)C)NC(=O)[C@H](CC(C)C)N(C)C(=O)CN(C)C1=O [Compound 20] | > 10 µM | 0.0067 µM | > 10 µM | 
CC[C@@H]1NC(=O)[C@H]([C@H](O)[C@H](C)Cc2nc3cc(F)cc(C(=O)O)c3[nH]2)N(C)C(=O)[C@H](C(C)C)N(C)C(=O)[C@H](CC(C)C)N(C)C(=O)[C@H](CC(C)C)N(C)C(=O)[C@@H](C)NC(=O)[C@H](C)NC(=O)[C@H](CC(C)C)N(C)C(=O)[C@H](C(C)C)NC(=O)[C@H](CC(C)C)N(C)C(=O)CN(C)C1=O [Compound 21] | 5.3 µM | 0.0222 µM | > 10 µM | 
CC[C@@H]1NC(=O)[C@H]([C@H](O)[C@H](C)Cc2nc3nc(O)nc(O)c3[nH]2)N(C)C(=O)[C@H](C(C)C)N(C)C(=O)[C@H](CC(C)C)N(C)C(=O)[C@H](CC(C)C)N(C)C(=O)[C@@H](C)NC(=O)[C@H](C)NC(=O)[C@H](CC(C)C)N(C)C(=O)[C@H](C(C)C)NC(=O)[C@H](CC(C)C)N(C)C(=O)CN(C)C1=O [Compound 24] | > 10 µM | 0.0062 µM | > 10 µM | 
CC[C@@H]1NC(=O)[C@H]([C@H](O)[C@H](C)Cc2nc3cc(C(=O)OC(C)C)ccc3[nH]2)N(C)C(=O)[C@H](C(C)C)N(C)C(=O)[C@H](CC(C)C)N(C)C(=O)[C@H](CC(C)C)N(C)C(=O)[C@@H](C)NC(=O)[C@H](C)NC(=O)[C@H](CC(C)C)N(C)C(=O)[C@H](C(C)C)NC(=O)[C@H](CC(C)C)N(C)C(=O)CN(C)C1=O [Compound 25] | 10 µM |  |  | 
CC[C@@H]1NC(=O)[C@H]([C@H](O)[C@H](C)Cc2nc3cc(C(=O)OCCN(C)C)ccc3[nH]2)N(C)C(=O)[C@H](C(C)C)N(C)C(=O)[C@H](CC(C)C)N(C)C(=O)[C@H](CC(C)C)N(C)C(=O)[C@@H](C)NC(=O)[C@H](C)NC(=O)[C@H](CC(C)C)N(C)C(=O)[C@H](C(C)C)NC(=O)[C@H](CC(C)C)N(C)C(=O)CN(C)C1=O [Compound 26] | > 10 µM | 0.0108 µM | 6.2 µM | 
CC[C@@H]1NC(=O)[C@H]([C@H](O)[C@H](C)Cc2nc3cc(C(=O)OCCN4CCOCC4)ccc3[nH]2)N(C)C(=O)[C@H](C(C)C)N(C)C(=O)[C@H](CC(C)C)N(C)C(=O)[C@H](CC(C)C)N(C)C(=O)[C@@H](C)NC(=O)[C@H](C)NC(=O)[C@H](CC(C)C)N(C)C(=O)[C@H](C(C)C)NC(=O)[C@H](CC(C)C)N(C)C(=O)CN(C)C1=O [Compound 27] | 7.4 µM | 0.0059 µM | 6.4 µM | 
CC[C@@H]1NC(=O)[C@H]([C@H](O)[C@H](C)Cc2nc3cccc(C(=O)OC)c3[nH]2)N(C)C(=O)[C@H](C(C)C)N(C)C(=O)[C@H](CC(C)C)N(C)C(=O)[C@H](CC(C)C)N(C)C(=O)[C@@H](C)NC(=O)[C@H](C)NC(=O)[C@H](CC(C)C)N(C)C(=O)[C@H](C(C)C)NC(=O)[C@H](CC(C)C)N(C)C(=O)CN(C)C1=O [Compound 29] | 10 µM | 0.0295 µM | > 10 µM | 
CC[C@@H]1NC(=O)[C@H]([C@H](O)[C@H](C)Cc2nc3ccc(C(=O)OC)c(C(=O)OC)c3[nH]2)N(C)C(=O)[C@H](C(C)C)N(C)C(=O)[C@H](CC(C)C)N(C)C(=O)[C@H](CC(C)C)N(C)C(=O)[C@@H](C)NC(=O)[C@H](C)NC(=O)[C@H](CC(C)C)N(C)C(=O)[C@H](C(C)C)NC(=O)[C@H](CC(C)C)N(C)C(=O)CN(C)C1=O [Compound 30] | > 10 µM | 0.0291 µM |  | 
CC[C@@H]1NC(=O)[C@H]([C@H](O)[C@H](C)Cc2nc3cc(C(=O)OC)c(C(=O)OC)cc3[nH]2)N(C)C(=O)[C@H](C(C)C)N(C)C(=O)[C@H](CC(C)C)N(C)C(=O)[C@H](CC(C)C)N(C)C(=O)[C@@H](C)NC(=O)[C@H](C)NC(=O)[C@H](CC(C)C)N(C)C(=O)[C@H](C(C)C)NC(=O)[C@H](CC(C)C)N(C)C(=O)CN(C)C1=O [Compound 32] | > 10 µM | 0.0249 µM | > 10 µM | 
CC[C@@H]1NC(=O)[C@H]([C@H](O)[C@H](C)Cc2nc3cc(NC(=O)C(F)(F)F)ccc3[nH]2)N(C)C(=O)[C@H](C(C)C)N(C)C(=O)[C@H](CC(C)C)N(C)C(=O)[C@H](CC(C)C)N(C)C(=O)[C@@H](C)NC(=O)[C@H](C)NC(=O)[C@H](CC(C)C)N(C)C(=O)[C@H](C(C)C)NC(=O)[C@H](CC(C)C)N(C)C(=O)CN(C)C1=O [Compound 38] | 3.8 µM | 0.0143 µM | 3.34 µM | 
CC[C@@H]1NC(=O)[C@H]([C@H](O)[C@H](C)CC2=NCCN2)N(C)C(=O)[C@H](C(C)C)N(C)C(=O)[C@H](CC(C)C)N(C)C(=O)[C@H](CC(C)C)N(C)C(=O)[C@@H](C)NC(=O)[C@H](C)NC(=O)[C@H](CC(C)C)N(C)C(=O)[C@H](C(C)C)NC(=O)[C@H](CC(C)C)N(C)C(=O)CN(C)C1=O [Compound 42] |  |  |  | 10 µM
CC[C@@H]1NC(=O)[C@H]([C@H](O)[C@H](C)CC2=NC(C(=O)O)CO2)N(C)C(=O)[C@H](C(C)C)N(C)C(=O)[C@H](CC(C)C)N(C)C(=O)[C@H](CC(C)C)N(C)C(=O)[C@@H](C)NC(=O)[C@H](C)NC(=O)[C@H](CC(C)C)N(C)C(=O)[C@H](C(C)C)NC(=O)[C@H](CC(C)C)N(C)C(=O)CN(C)C1=O (stereo partly shown) [Compound 43] | 5.3 µM | 0.0453 µM |  | 
CC[C@@H]1NC(=O)[C@H]([C@H](O)[C@H](C)Cc2nc3ccc4c(S(=O)(=O)O)cccc4c3[nH]2)N(C)C(=O)[C@H](C(C)C)N(C)C(=O)[C@H](CC(C)C)N(C)C(=O)[C@H](CC(C)C)N(C)C(=O)[C@@H](C)NC(=O)[C@H](C)NC(=O)[C@H](CC(C)C)N(C)C(=O)[C@H](C(C)C)NC(=O)[C@H](CC(C)C)N(C)C(=O)CN(C)C1=O [Compound 45] | > 10 µM |  |  | 
